Test results reported in publication PMC10288505, “Photoswitchable Calixarene Activators for Controlled Peptide Transport across Lipid Membranes” (Journal of the American Chemical Society, 2023).

Experiments:
[1] = tested on: R4; test: Indicator displacement assay with host:LCG reporter pair, guest R4; type: binding; details: association constant, competitive dye displacement with LCG, 5 mM phosphate buffer pH 7.3, mean ± SD of triplicate
Source text: (§1) The binding affinity of the anionic calixarene activators toward cationic peptides was investigated using a small library of highly hydrophilic oligoarginines, from 3 to 8 residues. These peptides are not able to spontaneously transverse zwitterionic artificial membranes in vesicle assays, which allows the accurate evaluation of the calixarenes 1 and 2 as counterion activators without interferences from the transport of the peptide alone.[43]−[45] First, the formation of host–guest complexes between 1/2 and the selected peptides was verified by indicator displacement assays using lucigenin (LCG) as the fluorescent indicator.[46] As previously reported for other sulfonatocalixarene derivatives,[46] the formation of host–guest binding pairs between calixarenes 1/2 in the E- and Z-forms and LCG results in significant static fluorescence quenching (see Figure 2A and Figures S26 and S27). Quantitative analysis of the fluorescence titration data using a 1:1 host:guest binding model allows the determination of the respective binding constants (K) reported in Table 1. As can be observed, both 1/2 display high affinity for the LCG dye, on the 10^7 M^–1 range, which seems to be independent of the nature and conformation of the azobenzene arm. […] The host:LCG binding pairs were then employed in the above-mentioned indicator displacement assays to investigate the binding affinity of oligoarginines toward 1 and 2 (see Figure 2B and Figures S29–S33).
(§2) The binding affinities of the counterion activators and peptide complexes were analyzed by indicator displacement assays. The fluorescent dye chosen for these experiments was lucigenin (LCG) due to its complex with the receptor SC4 being well characterized and due to the high variation of emission between its bound and free form. Firstly, the affinity for LCG was calculated for each of the activators, by titrations followed by fluorescence spectroscopy leading to almost full quenching of the emission. For the competitive assays, a concentration of LCG and activator was chosen in order to have approximately 90% of complexed dye and that mixture was then titrated with each of the peptides, leading to the regaining of emission when LCG was release from the complex.
(§3) Figure S26 - Fluorescence titration of the lucigenin dye with increasing concentrations of A) E-1 and B) Z–1 in water (5 mM phosphate buffer pH 7.3). LCG concentration was fixed 0.2 µM in all experiments, except for the first E-1 titrations were [LCG]
(§4) (1 picture or pasted object on this page, not shown here)
(§5) Figure S29 - Indicator displacement titration of the several oligoarginines A) R3 B) R4 C) R6 and D) R8, using SC4:LCG as the reporter pair (5 mM phosphate buffer pH 7.3). LCG and SC4 concentrations were fixed at A) 0.22 and 0.50 µM, for all three replicates, B) 0.22 and 4.7 µM for the first titration and 0.22 and 4.3 µM for the remaining two replicates, C) 0.22 and 0.45 µM and 1.1 and 0.85 µM and D) 0.28 and 0.43 µM and 1.1 and 0.85 µM, respectively, from left to right.
(§6) Figure S30 - Indicator displacement titration of the several oligoarginines A) R3 B) R4 C) R6 and D) R8, using E-1:LCG as the reporter pair (5 mM phosphate buffer pH 7.3) LCG and E-1 concentrations were fixed at A) 0.11 and 0.25 µM, for all three replicates, B) 0.22 and 0.5 µM, for the first two titrations and 0.22 and 0.23 µM for the remaining replicate, C) 4.0 and 3.8 µM and 0.22 and 0.5 µM, D) 4 and 3 µM and 0.22 and 0.5 µM, respectively, from left to right. […]

[2] = tested on: R3; test: Indicator displacement assay with host:LCG reporter pair, guest R3; type: binding; details: association constant, competitive dye displacement with LCG, 5 mM phosphate buffer pH 7.3, mean ± SD of triplicate
Source text: as §1, §2, §3, §4, §5, §6

[3] = tested on: hexaarginine (R6); test: Indicator displacement assay with host:LCG reporter pair, guest R6; type: binding; details: association constant, competitive dye displacement with LCG, 5 mM phosphate buffer pH 7.3; only the lower limit can be estimated
Source text: as §1
Figure 2 (A) Fluorescence titration of the lucigenin dye (LCG, 1.5 μM) with increasing concentrations of E-2 in water (5 mM phosphate buffer, pH 7.3). […]
The binding affinities of the counterion activators and peptide complexes were analyzed by indicator displacement assays. […] Firstly, the affinity for LCG was calculated for each of the activators, by titrations followed by fluorescence spectroscopy leading to almost full quenching of the emission. […]
Figure S26 - Fluorescence titration of the lucigenin dye with increasing concentrations of A) E-1 and B) Z–1 in water (5 mM phosphate buffer pH 7.3). […]

[4] = Photochemical characterisation (UV–vis absorption, 1H NMR) and thermal Z→E isomerization; type: physicochemical; details: for Fraction of E isomer in the photostationary state (PSS): irradiation of the Z-forms at 500 nm; for Thermal stability of the Z isomer: room temperature, time frame of the experiments
Source text: The photochromic properties of 1 and 2 were investigated in diluted aqueous solution by UV–vis absorption spectroscopy and in CD3OD by ^1H NMR.
On the other hand, irradiation of the Z-forms at λirr = 500 nm originates a photostationary state (PSS) composed of 70 and 80% of E-1 (Φ1Z → E = 0.6) and E-2 (Φ2Z → E = 0.5), respectively (Figure 1 and Figure S23). As generally observed for other azobenzene photoswitches,[42] the E isomers can be quantitatively recovered in the dark through the thermal Z → E isomerization, with 1 and 2 presenting activation energies of 215 and 93 kJ/mol, respectively (Figures S24 and S25).

| SMILES | Apparent affinity constant K for R4 [1] | Apparent affinity constant K for R3 [2] | Apparent affinity constant K for R6 [3] | Fraction of E isomer in the photostationary state (PSS) [4] [%] | Thermal stability of the Z isomer [4] |
| --- | --- | --- | --- | --- | --- |
| O=S(=O)([O-])c1cc2c(O)c(c1)Cc1cc(S(=O)(=O)[O-])cc(c1O)Cc1cc(S(=O)(=O)[O-])cc(c1OCCCCCCOc1ccc(/N=N/c3ccccc3)cc1)Cc1cc(S(=O)(=O)[O-])cc(c1O)C2.[Li+].[Li+].[Li+].[Li+] [E-1] | (3.9 ± 0.3) × 10^7 M^–1 | (2.6 ± 0.8) × 10^6 M^–1 | >5 × 10^8 ^a M^–1 | 70 |  |
| O=S(=O)([O-])c1cc2c(O)c(c1)Cc1cc(S(=O)(=O)[O-])cc(c1O)Cc1cc(S(=O)(=O)[O-])cc(c1OCCCCCCOc1ccc(/N=N\c3ccccc3)cc1)Cc1cc(S(=O)(=O)[O-])cc(c1O)C2.[Li+].[Li+].[Li+].[Li+] [Z-1] | (3.2 ± 0.7) × 10^7 M^–1 | (2.4 ± 0.6) × 10^6 M^–1 |  |  | minimal thermal interconversion at room temperature |
| CCCCc1ccc(/N=N/c2ccc(OCCCOc3c4cc(S(=O)(=O)[O-])cc3Cc3cc(S(=O)(=O)[O-])cc(c3O)Cc3cc(S(=O)(=O)[O-])cc(c3O)Cc3cc(S(=O)(=O)[O-])cc(c3O)C4)cc2)cc1.[Li+].[Li+].[Li+].[Li+] [E-2] | (1.2 ± 0.6) × 10^8 M^–1 | (4.1 ± 0.2) × 10^6 M^–1 | >5 × 10^8 ^a M^–1 | 80 |  |
| CCCCc1ccc(/N=N\c2ccc(OCCCOc3c4cc(S(=O)(=O)[O-])cc3Cc3cc(S(=O)(=O)[O-])cc(c3O)Cc3cc(S(=O)(=O)[O-])cc(c3O)Cc3cc(S(=O)(=O)[O-])cc(c3O)C4)cc2)cc1.[Li+].[Li+].[Li+].[Li+] [Z-2] | (7.8 ± 1.3) × 10^7 M^–1 | (3.6 ± 0.3) × 10^6 M^–1 |  |  | minimal thermal interconversion at room temperature |
